Read-outs that look alike come from different tables or passages of the source. Some results are limits rather than exact numbers.

The test system of data set [1] is gelsolin. The settings on record: equilibrium dialysis, high NaCl concentrations, cited from earlier work. For orientation: Equilibrium dialysis compares concentrations on both sides of a semipermeable membrane.
Data set [2] addresses T1, gelsolin (Homo sapiens, UniProt P06396).
T1 construct: His tag (cleaved yes); made in house; host or cells: E. coli Rosetta2 (DE3) pLysS, pSY5 plasmid
Briefly: Steady-state fluorescence anisotropy of ATP-N binding to gelsolin. The procedure: (§1) His-tagged human wild-type gelsolin was expressed in E. coli strain Rosetta2 (DE3) pLysS cells from a pSY5 plasmid. […] Traces of calcium were removed by dialysis (2 mM Tris-HCl, 1 mM EGTA, pH 7.4, overnight). Rabbit skeletal muscle actin was prepared from acetone powder (Pel-Freez Biologicals) in a protocol modified from Spudich and Watt. Actin was stored in buffer A (2 mM Tris-HCl, 0.2 mM ATP (ATP disodium trihydrate, Sigma-Aldrich), 0.1 mM CaCl2 (pCa 4), 0.1 mM DTT and 0.005% NaN3, pH 7.4). Alexa Fluor^TM 488 C5 Maleimide (Life Technologies) was used to label cysteine residues of gelsolin based on the manufacturer’s recommendations (Thermo Fisher Scientific).
(§2) We used a fluorescent derivative of PIP2 (PtdIns-(4,5)-P2-fluorescein, Cayman Chemicals, NU-10010388, λex = 493 nm, λem = 520 nm, abbreviated as PIP2-F) and a fluorescent derivative of ATP (N^6-(6-amino)hexyl-ATP-ATTO-532, Jena Bioscience, NU-805-532, λex = 532 nm, λem = 553 nm, abbreviated as ATP-N) as probes for the binding of PIP2 and ATP to gelsolin. Fluorescence intensities were measured on a Safire^2 monochromator microplate reader (TECAN) at 22°C. Steady-state fluorescence anisotropy values were determined according to Eq 1 [65], where IVV and IVH, respectively, are the intensities of vertically and horizontally polarized emission on excitation with vertically polarized light, with the correction factor, G, being the ratio of IVH/IVV.
(§3) The dissociation constants for ATP and PIP2 were calculated using a hyperbolic model from anisotropy data that had reached saturation during the gelsolin titrations Eq 2: r=rf+(rb−rf)(Kd+[G]+[L]−(Kd+[G]+[L])^2−4[G][L]/2[L]) (2) where rf is the anisotropy of free ligand, rb is the anisotropy of gelsolin-bound ligand, [L] is the total concentration of ligand, Kd is the dissociation constant and [G] is the total concentration of gelsolin. The anisotropy of 0.5 μM ATP-N was measured in the presence of gelsolin concentrations: 0, 0.2, 1.5, 2, 3, 5 and 8 μM. Saturation was evident at 5 μM characterized by an anisotropy value of 0.15 ± 0.006. The calcium and magnesium sensitivities of ATP binding to gelsolin were characterized by the change in anisotropy of solutions containing 0.5 μM ATP-N in the presence of 5 μM of gelsolin over a range of divalent cation concentrations of pCa 2–12 or pMg 1–12, where pCa and pMg refer to[…]. […] Anisotropy of 0.5 μM or 0.25 μM solutions of PIP2-F in the presence of 5 μM gelsolin was used to probe the changes in binding of the complexes under different calcium, magnesium, salt and ATP conditions.
A general note: Fluorescence polarisation rises when a labelled molecule tumbles more slowly, as on binding a larger partner.

Data set [3] can be described thus: Fluorescence emission of ATP-N with cations in the absence of gelsolin (precipitation). Format: physicochemical. As to the method: Supplementary file pone.0201826.s005.pdf: S5 Fig Assessment of the effects of calcium and ATP on the binding of ATP-N and PIP2-F to gelsolin. (A) Kds were calculated from the fit data with Eq 2 of gelsolin:PIP2-F binding under different calcium concentrations in the absence or presence of ATP. In the absence of ATP, PIP2-F (0.5 μM) binds to gelsolin, as reflected by thehigh affinity, across a wide range of calcium concentrations. […] (B) In the absence of gelsolin, calcium directly precipitates ATP-N (C, open triangles) with a half-maximum value of 70.4 ± 0.7 μM. Magnesium has no effect on the fluorescence emission of ATP-N either in the absence (M, orange circles) or presence of 10 μM calcium (MC, purple squares). Data were fitted with simple sigmoidal curves. (C) The reported FURA-2FF dissociation constant for calcium ions is 25 μM (A.G. Scientific Inc.). The calcium-dependent fluorescence emission profile of FURA-2FF (2 μM) over pCa range of 5–7 was similar in the presence and absence of 20 μM PIP2, which were fitted with simple sigmoidal curves. […] The measurement was carried out with a Perkin Elmer LS-55 spectrofluorimeter (λex = 340 nm, λem = 505 nm). (PDF) Click here for additional data file.

Data set [4] concerns the target T1, gelsolin. Kind of data set: Steady-state fluorescence anisotropy of PIP2-F binding to gelsolin. As to the method:
as §1, §2
as §3, with “Saturation was evident at 5 μM characterized by an anisotropy value of 0.15 ± 0.006.” left out

On the set-up of data set [5]: method as in A.G. Scientific Inc. As to conditions: ref A.G. Scientific Inc.; read-out: dissociation constant for calcium ions; cited from earlier work.
Data set [6] can be described thus: Critical micelle concentration by dynamic light scattering. Format: physicochemical. As to the method: tested, PIP2-F was free from micelle formation at concentrations of 0.5 µM or below, whereas […]
Methods: The critical micelle concentrations of PIP2 and 1-(1-octadecanoyl-fluorescein-2R-octadecanoylphosphatidyl)inositol-4,5-bisphosphate (Cayman Chemical, abbreviated as PIP2-F) were determined by dynamic light scattering (Huang et al., 2011). Fifty microliter samples were prepared by serial dilution of PIP2 or PIP2-F into a low salt buffer (2 mM Tris-HCl, pH 7.4), or the same buffer supplemented with 100 mM KCl, 1 mM MgCl2, and/or 1 mM CaCl2. After incubation for 30 min, the samples were centrifuged at 15,000 x g for 10 min, transferred into a 384-well clear bottom plate, and light scattering was measured using a Wyatt Dynapro plate reader at room temperature. The concentrations of PIP2-F were subsequently determined by light absorbance at 494 nm with a Nanodrop spectrophotometer. […]
Huang, W., Jiang, D., Wang, X., Wang, K., Sims, C. E., Allbritton, N. L. and Zhang, Q.

[7] abbreviates: 0.5 μM ATP-N, 5 μM gelsolin, sigmoidal fitting.

T1 sequence (P06396 28-782): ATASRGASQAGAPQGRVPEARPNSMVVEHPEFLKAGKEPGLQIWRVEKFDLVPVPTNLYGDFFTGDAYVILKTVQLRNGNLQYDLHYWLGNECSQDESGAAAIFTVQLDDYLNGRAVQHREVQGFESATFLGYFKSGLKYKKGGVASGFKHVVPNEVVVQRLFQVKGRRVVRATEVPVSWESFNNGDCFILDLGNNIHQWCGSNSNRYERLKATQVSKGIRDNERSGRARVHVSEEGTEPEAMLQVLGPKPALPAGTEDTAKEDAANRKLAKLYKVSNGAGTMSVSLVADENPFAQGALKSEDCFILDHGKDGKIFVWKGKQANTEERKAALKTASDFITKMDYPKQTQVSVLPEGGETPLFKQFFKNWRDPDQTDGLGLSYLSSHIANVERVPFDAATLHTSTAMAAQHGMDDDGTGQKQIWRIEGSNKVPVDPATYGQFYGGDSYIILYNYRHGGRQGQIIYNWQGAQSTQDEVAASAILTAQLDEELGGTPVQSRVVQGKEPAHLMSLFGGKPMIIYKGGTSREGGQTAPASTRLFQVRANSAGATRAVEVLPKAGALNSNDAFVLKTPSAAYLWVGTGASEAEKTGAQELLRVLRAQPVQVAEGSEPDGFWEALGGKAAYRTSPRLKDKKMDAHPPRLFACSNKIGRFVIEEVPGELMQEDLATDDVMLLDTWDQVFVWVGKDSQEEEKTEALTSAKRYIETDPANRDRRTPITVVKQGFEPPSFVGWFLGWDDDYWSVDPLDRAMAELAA

`Nc1ncnc2c1ncn2[C@@H]1O[C@H](COP(=O)(O)OP(=O)(O)O)[C@@H](O)[C@H]1O` [ADP]: in data set [1], the association with gelsolin result is recorded as “no significant association”.
On to `Nc1nc2c(ncn2[C@@H]2O[C@H](COP(=O)(O)OP(=O)(O)O)[C@@H](O)[C@H]2O)c(=O)[nH]1` [GDP], for which, in data set [1], the association with gelsolin entry is “no significant association”.
For the molecule `Nc1nc2c(ncn2[C@@H]2O[C@H](COP(=O)(O)OP(=O)(O)OP(=O)(O)O)[C@@H](O)[C@H]2O)c(=O)[nH]1` [GTP], in data set [1] (read-out: dissociation constant for gelsolin), the Kd is 1.8 µM.
In the case of `[Ca+2]` [calcium], the “inflection point (pCa) of ATP-N anisotropy decrease” value in data set [2] (setting [7]) is reported as 5.2. Further, in data set [2] (0.5 μM ATP-N, 5 μM gelsolin, read-out: calcium concentration at which 50% of ATP-N remains bound to gelsolin), the IC50 was 6.3 ± 0.2 µM. In data set [3], the “half-maximum value of calcium for precipitation of ATP-N” value is 70.4 ± 0.7 µM.
As for `[Mg+2]` [magnesium], in data set [2] (setting [7]), the “inflection point (pMg) of ATP-N anisotropy decrease” value stood at 2.3. Moreover, the IC50 in data set [2] (0.5 μM ATP-N, 5 μM gelsolin, read-out: magnesium concentration at which 50% of ATP-N remains bound to gelsolin) was found to be 5000 ± 1100 µM. Moreover, in data set [4] (0.5 mM ATP, 0.5 μM PIP2-F, 5 μM gelsolin), the “magnesium concentration above which the ATP effect on gelsolin/PIP2-F is diminished” value is “above 7 mM”. In data set [3] (absence or presence of 10 μM calcium), the “effect on the fluorescence emission of ATP-N” value is “no effect”.
Take FURA-2FF: the Kd in data set [5] was 25 µM.
On to N^6-(6-amino)hexyl-ATP-ATTO-532 [ATP-N], for which the “anisotropy of ATP-N at saturation” value in data set [2] (0.5 μM ATP-N, 5 μM gelsolin) was found to be 0.15 ± 0.006. Further, the Kd in data set [2] (0.5 μM ATP-N, absence of divalent cations) is 0.71 ± 0.52 µM; in data set [2] (50 mM KCl, 1 mM MgCl2 (pMg 3), titration with gelsolin) it was 1.8 µM; in data set [2] (100 mM KCl) it was 1.27 ± 0.6 µM; in data set [2] (100 mM KCl, 1 mM MgCl2 (pMg 3)), 1.58 ± 0.85 µM; in data set [2] (120 mM KCl), 1.42 ± 0.27 µM; in data set [2] (120 mM KCl, 1 mM MgCl2 (pMg 3)), 2.34 ± 0.73 µM. For the same molecule, the Kd in data set [2] (actin polymerization conditions, above 100 μM calcium) was 8.05 ± 1.32 µM.
For the molecule PtdIns-(4,5)-P2-fluorescein [PIP2-F], the “steady-state anisotropy of PIP2-F with gelsolin” value in data set [4] (0.5 μM PIP2-F, 5 μM gelsolin, no ATP, 1 mM Ca2+ (pCa 3)) is recorded as 0.04; in data set [4] (0.5 μM PIP2-F, 5 μM gelsolin, no ATP, ≈0–10 μM Ca2+ (pCa 15–5)) it was “approximately 0.12”. The Kd is 0.84 ± 0.39 µM in data set [4] (0.5 μM PIP2-F, absence of divalent cations, read-out: Kd of PIP2-F for gelsolin); 1.35 ± 0.7 µM in data set [4] (100 mM KCl, read-out: Kd of PIP2-F for gelsolin); 3.12 ± 1.7 µM in data set [4] (120 mM KCl, read-out: Kd of PIP2-F for gelsolin); 2.7 ± 0.2 µM in data set [4] (actin polymerization conditions (10 μM Ca2+, 1 mM Mg2+, 50 mM K+), absence of ATP, read-out: Kd of PIP2-F for gelsolin); less than 1 µM in data set [4] (no ATP, 1–10 μM calcium (pCa 6–5), absence of KCl and magnesium, read-out: Kd of PIP2-F/gelsolin interaction); less than 20 µM in data set [4] (no ATP, entire calcium range, absence of KCl and magnesium, read-out: Kd of PIP2-F/gelsolin interaction). The “CMC of PIP2-F” value in data set [6] (1 mM CaCl2 with 100 mM KCl or 100 mM KCl and 1 mM MgCl2) was ~ 0.5 μM; in data set [6] (absence of calcium), ~ 10 μM. Also, the micelle formation entry in data set [6] (at or below 0.5 μM, buffer conditions tested) was “failed to form micelles”.

These data come from paper PMC6080781, “ATP competes with PIP2 for binding to gelsolin” (PLoS ONE, 2018).
